From US8883963B2 (Cadila Healthcare Limited, priority 2007, dated 2014)

Key:
Human GLP-1 receptor = molecular target: T1, Human GLP-1 receptor (Homo sapiens, UniProt P43220); experiment: In vitro Human GLP-1 R agonist activity (cyclic AMP determination) in CHO/human GLP1R cells; type: cell-based
T1 construct: The full-length cDNA was cloned in pcDNA3.1(+); expressed in transfected cells

human glucagon receptor = molecular target: T2, human glucagon receptor (Homo sapiens, UniProt P47871); experiment: In vitro human glucagon antagonist activity (inhibition of cAMP production) in CHO/human glucagon R cells; type: cell-based; settings: with saturated concentration of glucagon peptide
T2 construct: The full-length cDNA was cloned in pcDNA3.1 (Invitrogen); expressed in transfected cells

DPP IV = DPP IV (Homo sapiens, UniProt P27487); experiment: Stability against DPP IV enzyme; type: in vitro ADME; settings: 37° C.; for % degradation of peptidomimetics in 24 h when incubated with DPP-IV enzyme: 2 μM peptidomimetic; for half-life at 2 μM: DPP IV enzyme, pH 7.8, 2 μM peptidomimetic, read-out: half-life (t1/2) when incubated with DPP-IV enzyme
Method: (§1) Reactions were terminated by the addition of TFA/H2O (15 mL, 10% (v/v)). […] The column was equilibrated with TFA/H20, at a flow rate of 1 mL/min.

[1] = Stability in human plasma; type: in vitro ADME; settings: 2 μM peptidomimetic, pooled human plasma, 37° C.; for half-life at 2 μM: pH 7.8, read-out: half-life (t1/2) when incubated with human plasma
Method: as §1

[2] = Stability in simulated gastric fluid; type: in vitro ADME; settings: 2 μM peptidomimetic, simulated gastric fluid pH 1.5, 37° C.; for half-life at 2 μM: read-out: half-life (t1/2) when incubated with simulated gastric fluid
Method: as §1

[3] = Stability in simulated intestinal fluid; type: in vitro ADME; settings: 2 μM peptidomimetic, simulated intestinal fluid pH 7.5, 37° C.; for half-life at 2 μM: read-out: half-life (t1/2) when incubated with simulated intestinal fluid
Method: as §1

[4] = Stability in liver microsomes; type: in vitro ADME; settings: 2 μM peptidomimetic, human liver microsomes, 37° C.; for half-life at 2 μM: pH 7.8, read-out: half-life (t1/2) when incubated with liver microsomes
Method: as §1

Chain of DPP IV (P27487 whole entry, species assumed): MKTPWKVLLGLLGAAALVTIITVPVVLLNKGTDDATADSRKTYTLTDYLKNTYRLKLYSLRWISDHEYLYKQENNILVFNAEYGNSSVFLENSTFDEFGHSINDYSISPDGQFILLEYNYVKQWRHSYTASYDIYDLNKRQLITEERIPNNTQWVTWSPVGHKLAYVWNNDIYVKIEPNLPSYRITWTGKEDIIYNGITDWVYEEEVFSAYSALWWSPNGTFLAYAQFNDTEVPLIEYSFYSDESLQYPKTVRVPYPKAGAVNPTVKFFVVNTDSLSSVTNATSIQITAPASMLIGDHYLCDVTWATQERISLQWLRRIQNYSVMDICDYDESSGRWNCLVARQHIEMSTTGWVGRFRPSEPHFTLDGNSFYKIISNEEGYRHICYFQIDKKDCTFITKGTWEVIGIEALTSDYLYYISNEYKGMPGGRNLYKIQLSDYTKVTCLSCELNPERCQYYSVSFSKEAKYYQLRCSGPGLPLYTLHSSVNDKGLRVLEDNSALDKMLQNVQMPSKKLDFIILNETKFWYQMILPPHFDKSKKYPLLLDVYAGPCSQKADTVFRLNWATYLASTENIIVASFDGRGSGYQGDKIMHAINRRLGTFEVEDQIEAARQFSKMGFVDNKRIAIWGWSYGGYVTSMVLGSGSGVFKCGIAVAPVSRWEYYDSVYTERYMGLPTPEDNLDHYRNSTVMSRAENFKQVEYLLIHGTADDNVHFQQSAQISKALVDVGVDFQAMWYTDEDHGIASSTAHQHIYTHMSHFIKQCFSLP
T1 sequence (P43220 24-463): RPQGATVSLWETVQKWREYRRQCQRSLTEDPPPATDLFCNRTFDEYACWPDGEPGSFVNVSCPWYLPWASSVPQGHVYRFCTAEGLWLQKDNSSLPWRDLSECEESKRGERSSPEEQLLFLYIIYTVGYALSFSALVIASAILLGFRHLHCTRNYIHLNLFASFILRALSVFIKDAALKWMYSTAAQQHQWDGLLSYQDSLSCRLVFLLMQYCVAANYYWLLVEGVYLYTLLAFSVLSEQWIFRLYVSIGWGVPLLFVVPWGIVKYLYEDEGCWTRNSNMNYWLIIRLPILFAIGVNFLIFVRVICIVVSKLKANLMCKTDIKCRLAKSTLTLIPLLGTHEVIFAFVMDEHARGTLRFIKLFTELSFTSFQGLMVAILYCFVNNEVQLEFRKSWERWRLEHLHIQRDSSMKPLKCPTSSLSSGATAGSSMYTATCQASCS
T2 sequence (P47871 26-477): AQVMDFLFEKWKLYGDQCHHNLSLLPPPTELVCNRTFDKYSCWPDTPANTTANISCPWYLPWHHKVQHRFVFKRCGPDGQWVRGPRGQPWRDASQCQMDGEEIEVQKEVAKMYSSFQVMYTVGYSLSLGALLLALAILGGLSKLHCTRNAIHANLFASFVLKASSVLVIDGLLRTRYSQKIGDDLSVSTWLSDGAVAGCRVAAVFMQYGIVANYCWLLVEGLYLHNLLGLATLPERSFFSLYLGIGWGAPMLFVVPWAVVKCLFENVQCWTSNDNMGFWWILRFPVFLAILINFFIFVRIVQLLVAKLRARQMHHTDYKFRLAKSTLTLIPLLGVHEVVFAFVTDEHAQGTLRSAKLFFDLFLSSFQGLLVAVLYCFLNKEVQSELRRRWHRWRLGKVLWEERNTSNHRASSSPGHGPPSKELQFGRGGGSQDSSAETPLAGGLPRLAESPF

| Structure (SMILES) | Human GLP-1 R activity (cAMP release), % activity with respect to control (Human GLP-1 receptor; 1 nM test compound) | Human GLP-1 R activity (cAMP release), % activity with respect to control (Human GLP-1 receptor; 10 nM test compound) | Human GLP-1 R activity (cAMP release), % activity with respect to control (Human GLP-1 receptor; 100 nM test compound) | Human GLP-1 R activity (cAMP release), % activity with respect to control (Human GLP-1 receptor; 1 μM test compound) | Human GLP-1 R activity (cAMP release), % activity with respect to control (Human GLP-1 receptor; 10 μM test compound) | Human Glucagon receptor antagonistic activity shown as inhibition of cAMP production of Glucagon peptide (human glucagon receptor; 1 nM test compound) | Human Glucagon receptor antagonistic activity shown as inhibition of cAMP production of Glucagon peptide (human glucagon receptor; 10 nM test compound) | Human Glucagon receptor antagonistic activity shown as inhibition of cAMP production of Glucagon peptide (human glucagon receptor; 100 nM test compound) | Human Glucagon receptor antagonistic activity shown as inhibition of cAMP production of Glucagon peptide (human glucagon receptor; 1 μM test compound) | Human Glucagon receptor antagonistic activity shown as inhibition of cAMP production of Glucagon peptide (human glucagon receptor; 10 μM test compound) | % degradation of peptidomimetics in 24 h when incubated with DPP-IV enzyme (DPP IV) | half-life at 2 μM (DPP IV) | % degradation of peptidomimetics in 24 h when incubated with human plasma [1] | half-life at 2 μM [1] | % degradation of peptidomimetics in 24 h when incubated with simulated gastric fluid [2] | % degradation of peptidomimetics in 24 h when incubated with simulated intestinal fluid [3] | % degradation of peptidomimetics in 24 h when incubated with liver microsomes [4] | half-life at 2 μM [4] | half-life at 2 μM [2] | half-life at 2 μM [3] | further results |
| --- | --- | --- | --- | --- | --- | --- | --- | --- | --- | --- | --- | --- | --- | --- | --- | --- | --- | --- | --- | --- | --- |
| CCc1cc(OC)ccc1-c1ccc(CC(C(=O)N(C)C(CCCc2ccccc2F)C(N)=O)N(C)C(=O)[C@H](CC(=O)O)N(C)C(=O)[C@H](CO)NC(=O)[C@@H](NC(=O)C(C)(Cc2ccccc2F)NC(=O)[C@@H](NC(=O)CNC(=O)C(CCC#N)NC(=O)C(C)(C)NC(=O)[C@@H](N)Cc2c[nH]cn2)[C@H](C)O)[C@H](C)O)cc1 (single isomer, unassigned) [compound 156] | 86 ± 0.11% | 99 ± 0.09% | 99 ± 0.06% | 99 ± 0.14% | 99 ± 0.19% | 5 ± 0.01 pmol/ml/μg prt | 2 ± 0.17 pmol/ml/μg prt | 0 pmol/ml/μg prt | 0 pmol/ml/μg prt | 0 pmol/ml/μg prt | 70% | 9 h | 71% | 8 h | 14% | 40% | 78% | 1 h | – | – | half-life (t1/2) when incubated with simulated gastric fluid [2]: (8) h; half-life (t1/2) when incubated with simulated intestinal fluid [3]: (6) h |
| CCc1cc(OC)ccc1-c1ccc(CC(NC(=O)[C@H](CC(=O)O)NC(=O)[C@H](CO)NC(=O)[C@@H](NC(=O)C(C)(Cc2ccccc2F)NC(=O)[C@@H](NC(=O)CNC(=O)C(CCC#N)NC(=O)C(C)(C)NC(=O)[C@@H](N)Cc2c[nH]cn2)[C@H](C)O)[C@H](C)O)C(=S)NC(CCCc2ccccc2F)C(N)=O)cc1 (single isomer, unassigned) [compound 168] | 96 ± 0.09% | 99 ± 0.07% | 99 ± 0.04% | 99 ± 0.01% | 99 ± 0.08% | 21 ± 0.11 pmol/ml/μg prt | 19 ± 0.02 pmol/ml/μg prt | 18 ± 0.07 pmol/ml/μg prt | 18 ± 0.03 pmol/ml/μg prt | 16 ± 0.02 pmol/ml/μg prt | 72% | 9 h | 70% | 8 h | 12% | 42% | 78% | 1 h | – | – | half-life (t1/2) when incubated with simulated gastric fluid [2]: (8) h; half-life (t1/2) when incubated with simulated intestinal fluid [3]: (6) h |
| CCc1cc(OC)ccc1-c1ccc(CC(NC(=S)[C@H](CC(=O)O)NC(=O)[C@H](CO)NC(=O)[C@@H](NC(=O)C(C)(Cc2ccccc2F)NC(=O)[C@@H](NC(=O)CNC(=O)C(CCC#N)NC(=O)C(C)(C)NC(=O)[C@@H](N)Cc2c[nH]cn2)[C@H](C)O)[C@H](C)O)C(=S)NC(CCCc2ccccc2)C(N)=O)cc1 (single isomer, unassigned) [compound 178] | 39 ± 0.12% | 80 ± 0.15% | 86 ± 0.18% | 95 ± 0.03% | 98 ± 0.09% | 0 pmol/ml/μg prt | 0 pmol/ml/μg prt | 0 pmol/ml/μg prt | 0 pmol/ml/μg prt | 0 pmol/ml/μg prt | 00% | > 24 h | 00% | > 24 h | 00% | 00% | 35% | – | > 24 h | > 24 h | half-life (t1/2) when incubated with liver microsomes [4]: (5) h |
| CCc1cc(OC)ccc1-c1ccc(CC(CNC(CCCc2ccccc2)C(N)=O)NC[C@H](CC(=O)O)NC(=O)[C@H](CO)NC(=O)[C@@H](NC(=O)C(C)(Cc2ccccc2F)NC(=O)[C@@H](NC(=O)CNC(=O)[C@H](CCC(N)=O)NC(=O)C(C)(C)NC(=O)[C@H](Cc2c[nH]cn2)NC(=O)OC)[C@@H](C)O)[C@@H](C)O)cc1 (single isomer, unassigned) [compound 194] | 38 ± 0.11% | 77 ± 0.16% | 85 ± 0.11% | 94 ± 0.08% | 97 ± 0.05% | 18 ± 0.12 pmol/ml/μg prt | 16 ± 0.11 pmol/ml/μg prt | 12 ± 0.13 pmol/ml/μg prt | 8 ± 0.12 pmol/ml/μg prt | 6 ± 0.18 pmol/ml/μg prt | 00% | > 24 h | 00% | > 24 h | 43% | 00% | 84% | 2 h | 4 h | > 24 h | – |
| CCc1cc(OC)ccc1-c1ccc(CC(CNC(CCCc2ccccc2F)C(N)=O)NC[C@H](CC(=O)O)NC(=O)[C@H](CO)NC(=O)[C@@H](NC(=O)C(C)(Cc2ccccc2F)NC(=O)[C@@H](NC(=O)CNC(=O)C(CCC#N)NC(=O)C(C)(C)NC(=O)[C@@H](N)Cc2c[nH]cn2)[C@H](C)O)[C@H](C)O)cc1 (single isomer, unassigned) [compound 204] | 96 ± 0.02% | 99 ± 0.46% | 99 ± 0.41% | 99 ± 0.66% | 99 ± 0.03% | 6 ± 0.05 pmol/ml/μg prt | 5 ± 0.04 pmol/ml/μg prt | 2 ± 0.16 pmol/ml/μg prt | 0 pmol/ml/μg prt | 0 pmol/ml/μg prt | 00% | > 24 h | 00% | > 24 h | 00% | 00% | 32% | – | > 24 h | > 24 h | half-life (t1/2) when incubated with liver microsomes [4]: (5) h |
